In US12590099B2, “Inhibitors of histone deacetylase useful for the treatment or prevention of HIV infection” (Merck Sharp & Dohme LLC, priority 2018, dated 2026):
pIC50: −log10 of the molar value.

Experiments:
Type in all cases: biochemical
Recombinant human HDAC1 = target: T1, Recombinant human HDAC1 (Homo sapiens, UniProt Q13547); experiment: Human HDAC enzyme inhibitor Fluor-de-Lys assay, HDAC1; details: recombinant human HDAC1, Fluor-de-Lys assay
T1 construct: FLAG (C); made in house
How it was run: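 Fluor-de-Lys format at room temperature (23° C.): compounds titrated 10-point, 1:3, preincubated with HDAC before substrate addition; HDAC1 run at 0.3 nM enzyme with 20 μM BML-KI104. Developer with excess HDAC inhibitor ends the reaction, and trypsin-liberated AMC fluorescence is the read-out.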

Recombinant human HDAC2 = target: T2, Recombinant human HDAC2 (Homo sapiens, UniProt Q92769); experiment: Human HDAC enzyme inhibitor Fluor-de-Lys assay, HDAC2; details: recombinant human HDAC2, Fluor-de-Lys assay
T2 construct: Full length human HDAC2-FLAG was expressed in baculovirus infected Sf9 cells; FLAG (C); made in house; host or cells: Sf9 (baculovirus)
How it was run: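 Fluor-de-Lys format at room temperature (23° C.): compounds titrated 10-point, 1:3, preincubated with HDAC before substrate addition. Developer with excess HDAC inhibitor ends the reaction, and trypsin-liberated AMC fluorescence is the read-out.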

HDAC6 = target: T3, HDAC6 (Homo sapiens, UniProt Q9UBN7); experiment: Human HDAC enzyme inhibitor Fluor-de-Lys assay, HDAC6; details: HDAC6, Fluor-de-Lys assay
T3 sequence (Q9UBN7 1-1215): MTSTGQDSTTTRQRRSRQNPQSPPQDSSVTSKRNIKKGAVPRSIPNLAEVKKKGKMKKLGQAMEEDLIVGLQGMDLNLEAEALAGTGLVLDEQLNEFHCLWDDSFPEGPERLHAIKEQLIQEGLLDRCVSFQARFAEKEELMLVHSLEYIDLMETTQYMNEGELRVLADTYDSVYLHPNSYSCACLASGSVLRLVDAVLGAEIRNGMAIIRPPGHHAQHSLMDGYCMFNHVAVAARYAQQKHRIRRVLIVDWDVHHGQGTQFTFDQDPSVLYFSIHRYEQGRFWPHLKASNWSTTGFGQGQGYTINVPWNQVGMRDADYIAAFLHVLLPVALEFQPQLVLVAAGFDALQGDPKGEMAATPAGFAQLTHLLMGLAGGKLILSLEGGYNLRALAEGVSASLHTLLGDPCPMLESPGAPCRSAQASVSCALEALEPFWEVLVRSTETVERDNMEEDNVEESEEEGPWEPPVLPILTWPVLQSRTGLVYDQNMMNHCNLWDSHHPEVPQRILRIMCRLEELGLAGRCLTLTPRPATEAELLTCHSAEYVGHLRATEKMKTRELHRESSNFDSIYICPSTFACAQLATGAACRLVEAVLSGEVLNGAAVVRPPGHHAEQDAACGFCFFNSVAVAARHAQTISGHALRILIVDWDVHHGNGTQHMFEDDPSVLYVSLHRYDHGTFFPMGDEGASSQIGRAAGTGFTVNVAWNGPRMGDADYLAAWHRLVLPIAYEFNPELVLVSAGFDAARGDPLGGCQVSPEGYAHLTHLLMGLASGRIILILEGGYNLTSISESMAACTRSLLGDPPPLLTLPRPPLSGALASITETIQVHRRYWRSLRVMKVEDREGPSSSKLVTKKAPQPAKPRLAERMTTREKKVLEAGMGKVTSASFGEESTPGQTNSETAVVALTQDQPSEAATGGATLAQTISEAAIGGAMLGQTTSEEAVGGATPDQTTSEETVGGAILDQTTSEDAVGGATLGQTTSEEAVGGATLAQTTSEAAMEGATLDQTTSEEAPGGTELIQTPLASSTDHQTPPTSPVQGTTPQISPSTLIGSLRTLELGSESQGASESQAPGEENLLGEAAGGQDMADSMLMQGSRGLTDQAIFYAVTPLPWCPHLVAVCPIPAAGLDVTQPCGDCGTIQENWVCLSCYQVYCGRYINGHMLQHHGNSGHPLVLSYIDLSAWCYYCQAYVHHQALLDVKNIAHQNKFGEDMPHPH

Recombinant human HDAC8 = target: T4, Recombinant human HDAC8 (Homo sapiens, UniProt Q9BY41); experiment: Human HDAC enzyme inhibitor Fluor-de-Lys assay, HDAC8; details: recombinant human HDAC8, Fluor-de-Lys assay
T4 construct: purchased Enzo Life Sciences BML-SE145-0100
T4 sequence (Q9BY41 1-377): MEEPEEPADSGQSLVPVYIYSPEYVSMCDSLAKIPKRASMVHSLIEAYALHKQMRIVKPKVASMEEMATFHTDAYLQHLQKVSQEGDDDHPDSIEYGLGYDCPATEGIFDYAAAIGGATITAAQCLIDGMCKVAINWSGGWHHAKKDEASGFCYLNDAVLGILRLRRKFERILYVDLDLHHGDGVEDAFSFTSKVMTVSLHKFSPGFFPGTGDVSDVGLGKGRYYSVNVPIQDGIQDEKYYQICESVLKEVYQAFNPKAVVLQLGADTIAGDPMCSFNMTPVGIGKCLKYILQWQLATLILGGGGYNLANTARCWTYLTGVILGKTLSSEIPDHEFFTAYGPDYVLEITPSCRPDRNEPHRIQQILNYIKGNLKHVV

T2 sequence (Q92769 whole entry): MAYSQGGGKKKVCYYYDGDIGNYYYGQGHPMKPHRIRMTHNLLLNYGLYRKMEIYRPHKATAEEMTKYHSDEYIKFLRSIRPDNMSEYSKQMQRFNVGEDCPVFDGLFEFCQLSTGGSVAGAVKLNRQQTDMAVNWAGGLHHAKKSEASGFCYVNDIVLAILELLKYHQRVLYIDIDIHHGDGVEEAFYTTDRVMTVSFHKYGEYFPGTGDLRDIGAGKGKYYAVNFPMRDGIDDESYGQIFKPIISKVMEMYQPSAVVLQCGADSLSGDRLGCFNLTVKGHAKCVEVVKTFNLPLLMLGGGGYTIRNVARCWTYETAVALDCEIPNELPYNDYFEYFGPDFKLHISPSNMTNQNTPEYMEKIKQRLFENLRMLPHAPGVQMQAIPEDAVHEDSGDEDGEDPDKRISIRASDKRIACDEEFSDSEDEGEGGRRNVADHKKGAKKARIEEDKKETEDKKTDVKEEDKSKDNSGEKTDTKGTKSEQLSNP
T1 sequence (Q13547 whole entry): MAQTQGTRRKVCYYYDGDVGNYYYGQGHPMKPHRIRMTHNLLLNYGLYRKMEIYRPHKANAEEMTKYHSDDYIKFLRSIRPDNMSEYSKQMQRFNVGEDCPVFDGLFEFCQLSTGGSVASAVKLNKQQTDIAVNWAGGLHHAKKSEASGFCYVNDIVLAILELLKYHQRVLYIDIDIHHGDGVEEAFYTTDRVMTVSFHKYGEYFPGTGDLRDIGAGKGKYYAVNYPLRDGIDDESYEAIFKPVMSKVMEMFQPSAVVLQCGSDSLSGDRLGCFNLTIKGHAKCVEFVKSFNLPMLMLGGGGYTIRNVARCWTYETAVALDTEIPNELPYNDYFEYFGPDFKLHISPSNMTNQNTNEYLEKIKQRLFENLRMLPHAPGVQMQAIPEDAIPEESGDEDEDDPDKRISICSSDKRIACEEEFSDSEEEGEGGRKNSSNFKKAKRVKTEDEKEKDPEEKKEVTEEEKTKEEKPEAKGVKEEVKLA

Row | Structure (SMILES) | pIC50 (Recombinant human HDAC1) | pIC50 (Recombinant human HDAC2) | pIC50 (HDAC6) | pIC50 (Recombinant human HDAC8)
1 | CCC(=O)CCCCC[C@H](NC(=O)[C@H]1CC12CCN(CC1CC1)CC2)c1ncc(-c2cc3ccc(C)nc3cc2OC)o1 [Compound 422] | 9.77 | 9.15 | 6.95 | < 6.05
2 | CCC(=O)CCCCC[C@H](NC(=O)[C@H]1CC[C@]2(CC1)OC(=O)c1ccncc12)c1ncc(-c2ccccc2)[nH]1 [Compound 376] | 7.30 | 6.62 | 4.96 | 5.31
3 | CCC(=O)CCCCC[C@H](NC(=O)C1CC12CCOCC2)c1ncc(-c2cc3ccc(C)nc3cc2OC)[nH]1 (single isomer, unassigned) [Compound 413] | 7.79 | 6.81 | < 6.05 | < 6.05
4 | CCC(=O)CCCCC[C@H](NC(=O)[C@H]1CC[C@]2(CC1)OC(=O)c1cccnc12)c1nnc(-c2cc3ccccc3nc2OC)o1 [Compound 368] | 7.30 | 6.83 | 5.62 | 4.66
5 | CCC(=O)CCCCC[C@H](NC(=O)C1=NOC2(CCN(C)CC2)C1)c1nnc(-c2cc3ccccc3nc2OC)o1 [Compound 370] | 7.97 | 7.38 | 5.76 | 5.06
6 | CCC(=O)CCCCC[C@H](NC(=O)C1=NOC2(CCN(S(C)(=O)=O)CC2)C1)c1ncc(-c2ccccc2)[nH]1 [Compound 383] | 7.02 | 6.37 | 4.79 | 5.05
7 | CCC(=O)CCCCC[C@H](NC(=O)C1=NOC2(CCN(C)CC2)C1)c1ncc(-c2ccc(Cl)cc2OC)o1 [Compound 390] | 7.74 | 6.80 | 6.51 | < 6.05
8 | CCC(=O)CCCCC[C@H](NC(=O)[C@H]1CC12CCN(C)CC2)c1ncc(-c2cc3ocnc3cc2F)o1 [Compound 389] | 7.67 | 7.01 | < 6.05 | < 6.05
9 | CCC(=O)CCCCC[C@H](NC(=O)C1=NOC2(CCN(C(C)=O)CC2)C1)c1ncc(-c2ccccc2)[nH]1 [Compound 380] | 7.16 | 6.49 | 4.79 | 5.20
10 | CCC(=O)CCCCC[C@H](NC(=O)C1CC12CCOCC2)c1ncc(-c2cc3ccc(C)nc3cc2OC)o1 (single isomer, unassigned) [Compound 409] | 7.98 | 7.00 | < 6.05 | < 6.05
11 | CCC(=O)CCCCC[C@H](NC(=O)[C@H]1CC[C@]2(CC1)OC(=O)c1ncccc12)c1nnc(-c2cc3ccccc3nc2OC)o1 [Compound 367] | 7.59 | 7.17 | 5.68 | 4.67
12 | CCN[C@@H](CCCCCC(=O)CC)c1ncc(-c2cc3ccc(C)nc3cc2OC)[nH]1 [Compound 403] | 6.61 | < 6.05 | < 6.05 | < 6.05
13 | CCC(=O)CCCCCC(CC)(NC(=O)[C@H]1CC12CCN(CC1CC1)CC2)c1nc(-c2cc3ccc(C)nc3cc2OC)c[nH]1 (stereo partly drawn) [Compound 420, (1S)-6-(cyclopropylmethyl)-N-{3-[4-(7-methoxy-2-methylquinolin-6-yl)-1H-imidazol-2-yl]-9-oxoundecan-3-yl}-6-azaspiro[2.5]octane-1-carboxamide] | 6.31 | 6.48 | < 6.05 | < 6.05
14 | CCC(=O)CCCCC[C@H](NC(=O)[C@H]1CC12CCN(CC1CC1)CC2)c1ncc(-c2cc3ccc(=O)n(C)c3cc2F)o1 [Compound 400] | 8.19 | 7.40 | < 6.05 | < 6.05
15 | CCC(=O)CCCCC[C@H](NC(=O)[C@H]1CC[C@@]2(CC1)OC(=O)c1ncccc12)c1ncc(-c2ccccc2)[nH]1 [Compound 374] | 7.03 | 6.37 | 4.95 | 5.09
16 | CCC(=O)CCCCC[C@H](NC(=O)C1=NOC2(CCN(C)CC2)C1)c1ncc(-c2ccc(-c3ccncc3)cc2OC)o1 [Compound 395] | 8.62 | 7.44 | < 6.05 | < 6.05
17 | CCC(=O)CCCCC[C@H](NC(=O)C1=NOC2(CCN(C)CC2)C1)c1ncc(-c2cc3ccncc3cc2OC)o1 [Compound 415] | 8.48 | 7.48 | < 6.05 | < 6.05
18 | CCC(=O)CCCCCC(N)(COC)c1ncc(-c2cc3ccc(C)nc3cc2OC)[nH]1 (stereo not shown) [Compound 414, 9-amino-10-methoxy-9-[5-(7-methoxy-2-methylquinolin-6-yl)-1H-imidazol-2-yl]decan-3-one] | < 6.05 | < 6.05 | < 6.05 | < 6.05
19 | CCC(=O)CCCCC[C@H](NC(=O)C1=NOC2(CCN(C(C)C)CC2)C1)c1ncc(-c2ccccc2)[nH]1 [Compound 379] | 7.66 | 7.00 | 5.07 | 5.48
20 | CCC(=O)CCCCC[C@H](NC(=O)[C@H]1CC[C@@]2(CC1)OC(=O)c1cccnc12)c1ncc(-c2ccccc2)[nH]1 [Compound 375] | 6.93 | 6.32 | 4.99 | 5.05
21 | CCC(=O)CCCCC[C@H](NC(=O)[C@H]1CC12CCN(C)CC2)c1ncc(-c2cc3ccncc3cc2OC)o1 [Compound 405] | 9.52 | 8.70 | 6.79 | < 6.05
22 | CCC(=O)CCCCC[C@H](NC(=O)C1=NOC2(CCN(C(C)C)CC2)C1)c1nnc(-c2cc3ccccc3nc2OC)o1 [Compound 369] | 7.73 | 7.17 | 5.60 | 4.70
23 | CCC(=O)CCCCC[C@H](NC(=O)[C@H]1CC[C@]2(CC1)OC(=O)c1cccnc12)c1ncc(-c2ccccc2)[nH]1 [Compound 378] | 7.34 | 6.66 | 4.97 | 5.53
24 | CCC(=O)CCCCC[C@H](NC(=O)C1CC12CCOCC2)c1ncc(-c2cc3ccc(C)nc3cc2OC)[nH]1 (single isomer, unassigned) [Compound 407] | 9.05 | 7.69 | < 6.05 | < 6.05
25 | CCC(=O)CCCCC[C@H](NC(=O)[C@H]1CC12CCN(C)CC2)c1ncc(-c2cc3ocnc3cc2OC)o1 [Compound 408] | 8.42 | 7.44 | 6.19 | < 6.05
26 | CCC(=O)CCCCC[C@H](NC(=O)C1=NOC2(CCN(C)CC2)C1)c1ncc(-c2ccccc2)[nH]1 [Compound 382] | 7.48 | 6.84 | 4.92 | 5.18
27 | CCC(=O)CCCCC[C@H](NC(=O)[C@H]1CC12CCN(CC1CC1)CC2)c1ncc(-c2ccc3nc(C)ccc3c2)[nH]1 [Compound 393] | 10.30 | 10.00 | 6.49 | < 6.05
28 | CCC(=O)CCCCCC(NC(=O)C1CCC2(CC1)OC(=O)c1ncccc12)c1nnc(-c2cc3ccccc3nc2OC)o1 (stereo not shown) [Compound 365] | 7.21 | 6.68 | 5.71 | 4.55
